The values that follow come from patent US10653139B2 (priority 2015, dated 2020).

Data set [1] relates to grain maize germination. In words: In vitro germination assay of treated seeds. The following applies: 3.5 months treatments, in vitro after 4 days (FIG. 2A). The protocol: (§1) FIG. 2—Represents the effect of 3.5 months treatments on grain maize germination: (A) in vitro after 4 days and (B) in vivo 17 days after sowing (DAS).
In an embodiment, for the in vitro germination assay were used 10 seeds and 5 ml of sterile water per petri dish and the incubation temperature was ±25° C.

In data set [2] the test system is Acanthoscelides obtectus. Nature of the data set: Insecticidal activity test, vapour phase, bean. The format is in vivo. The following applies: 7.5 μL/mL.
Data set [3] deals with plants produced from treated seeds. Nature of the data set: In vivo effects on plants from treated seeds (pots in greenhouse). Further details: species or system maize. The procedure:
as §1
In an embodiment, the assay was performed in pots in a greenhouse with environmental monitoring (temperature, humidity and PAR intensity) and controlled irrigation. For each treatment, 6 pots with 2 plants each were used. […] No relevant differences in phenotypic (germination, chlorophyll and height) and physiological parameters (photosynthesis, stomatal conductance and transpiration (FIG. 3) were found.

Data set [4] has as its system fungi growth on dried grains. Nature of the data set: Antifungal in vivo test on dried grains, vapour phase. The following applies: dried grains on PDA, 25 weeks. The source says:
1.2 In vivo tests. The efficacy screening of the vapour of clove and pennyroyal essential oils (OE) and their main active components (MAC) eugenol, pulegone or their mixture was, carried out using a modified technique describe in Bluma, R., Landa, M. F., Etcheverry, M., 2009. Impact of volatile compounds generated by essential oils on Aspergillus section Flavi growth parameters and aflatoxin accumulation. J. Sci. Food Agric. 89 (9), 1473-1480. For the determination of volatile phase effect of essential oil on fungi growth different concentrations of essential oil were added to sterile filter papers (10 mm diameter, Whatman No. 1), namely, 0.5 μL/mL, 1.0 μL/mL, 2.5 μL/mL and 5.0 μL/mL and placed adherent to the inner surface of each Petri dishes lid (90 mm).
The grains were disinfected at surface as describe by Pitt & Hocking (Pitt, J. I., Hocking, A. D., 2009. Fungi and food spoilage. Springer, New York).
Ten dried grains were placed on Petri dishes with 20 mL of PDA medium with chloramphenicol (1%). These dishes were sealed immediately with parafilm and incubated at 28° C. Inhibition concentrations of volatile phase of essential oils were determined by periodic observation of fungi growth over 25 weeks. Control with no treated grains was also performed. For each concentration ten replicates were done.

The nature of data set [5]: Container atmosphere composition (GC-PID). The format is physicochemical. The following applies: after 20 days of storage, one or two devices, 24 ml pulegone, 65 L container, maintained 4/5 months. The procedure: To study the evolution of the spatial and temporal pulegone concentration, two containers with 1 and 2 release devices were used, similar to those described in 4.1. In each container, 24 ml of pulegone were impregnated in cotton.
The spatial concentration profiles along time were outlined by collecting over time samples of 500 μL from the container atmosphere, through the 6 sampling ports (detailed presentation in FIG. 1) using a 500 μL gas-tight Hamilton syringe.
Nitrogen was used as carrier gas at a constant 2 mL flow rate.

Data set [6] has as its system Sitophilus zeamais. In words: Insecticidal activity test, vapour phase, maize. The format is in vivo. The note with it: 18.8 μL/mL. The protocol: Maize grain with an average moisture content of 14±0.5% and ten unsexed adult insects aged from 1 to 4 days were used. The stock cultures of insects and the biological tests were carried out in a single incubator at 27° C. and 75±5% relative humidity.
Control with non-treated samples was also performed. Ten replicates per treatment and control were set up. All the replicates were kept in an incubator at 27° C. and 75%±5% relative humidity.
The progeny (F1) was evaluated monthly by common procedures after removing the parent adults. Insect mortality was assessed during five months (0.25, 1, 8, 134 and 149 days). The development index and the life cycle were also evaluated.

Data set [7] concerns Penicillium islandicum. Nature of the data set: Antifungal in vitro assay, direct plating. The format is cell-based. The following applies: observed over 25 weeks. The protocol: (§2) The screening of S. aromaticum and M. pulegium essential oils and their major components, eugenol and pulegone, respectively, was carried out using a direct plating technique in order to evaluate their ability to inhibit the growth of Aspergillus candidus, A. niger, Penicillium islandicum and Fusarium culmorum.
(§3) In vitro assays. For the determination of direct plating effect of essential oil on the growth of the fungi on different concentrations 0.5, 1.0, 2.5 and 5.0 μL/mL of essential oil were put on the surface of a Petri dish with 20 mL of potato dextrose agar medium (PDA). These Petri dishes were inoculated with a 5 mm diameter disk of fungi grown on PDA medium for 8 days at 28° C. This disk was placed on the agar surface and the dish sealed immediately with parafilm to prevent loss of essential oil to the atmosphere and incubated at 28° C. Inhibition concentrations of essential oil were determined by periodic evaluation of fungi growth during 25 weeks. For each concentration, four replicate dishes were used.

In data set [8] the test system is Aspergillus candidus. Nature of the data set: Antifungal in vitro assay, direct plating. The following applies: observed over 25 weeks. The format is cell-based. The procedure: as §2, §3
The subject of data set [9] is Aspergillus niger. Nature of the data set: Antifungal in vitro assay, direct plating. The note with it: observed over 25 weeks. The format is cell-based. The procedure:
as §2, §3

Data set [10] relates to Fusarium culmorum. Nature of the data set: Antifungal in vitro assay, direct plating. The format is cell-based. The following applies: observed over 25 weeks. The protocol: as §2, §3
The test system of data set [11] is Penicillium islandicum. In words: Antifungal in vitro assay, volatile (vapour) phase. The format is cell-based. The following applies: observed over 25 weeks. The protocol:
(§4) Petri dishes were inoculated with a 5 mm diameter disk of fungi grown on PDA medium for 8 days at 28° C. This disk was placed on the agar surface and the dish sealed immediately with parafilm and incubated at 28° C. Inhibition concentrations of volatile phase of essential oils were determined by a periodic evaluation the fungi growth over 25 weeks. In the control, equal amounts of sterilized water was added to filter papers and placed onto the lid of Petri dishes. For each concentration, four replicate Petri dishes were used. The absence of growth was recorded during 25 weeks.

The subject of data set [12] is Aspergillus candidus. Nature of the data set: Antifungal in vitro assay, volatile (vapour) phase. The following applies: observed over 25 weeks. The format is cell-based. The protocol: as §4
Data set [13] has as its system Aspergillus niger. In words: Antifungal in vitro assay, volatile (vapour) phase. The format is cell-based. The following applies: observed over 25 weeks. The protocol: as §4
Data set [14] has as its system Fusarium culmorum. Nature of the data set: Antifungal in vitro assay, volatile (vapour) phase. The note with it: observed over 25 weeks. The format is cell-based. The protocol:
as §4

`C=C(C)[C@H]1CC=C(C)CC1` [Limonene, reference compound]: the “seed germination capacity, in vitro” value in data set [1] was “significant decrease”. Besides, the “Insect Mortality (%)” value in data set [2] (0.25 days) was found to be 0%; in data set [2] (1 day (control 29)), 100%; in [2] (8 days (control 100)), 100%; in data set [2] (134 days (control 100)) it was 100%; in [2] (149 days (control 100)) it was 100%. Besides, in [3] (plants from treated seeds (FIG. 4A)), the “height of plants relatively to the control” value was “small variation”. For the same compound, the “decrease in total chlorophyll content related to the control” value in data set [3] (plants obtained from treated grains) is 1.9%. Also, the “germination, in vivo” value in [3] (pots in greenhouse, figure printed in brackets after 'really affected the germination') amounted to 49.1%.

`CC(C)=C1CC[C@@H](C)CC1=O` [Pulegone, pulegone]: the “Time (weeks), period of storage without any fungal contamination, in vivo” value amounted to 2 weeks in data set [4] (0.5 μL/mL), 20 weeks in [4] (2.5 μL/mL) and 25 weeks in [4] (5.0 μL/mL). Also, the “stabilized concentration level in the container atmosphere” value in [5] is 10 % of the standard pulegone saturation value. Also, the “Insect Mortality (%)” value was 46% in data set [6] (0.25 days); 100% in data set [6] (1 day); 100% in data set [6] (8 days); 100% in data set [6] (134 days); 100% in data set [6] (149 days); 0% in [2] (0.25 days). Moreover, the “Insect Mortality (%)” value in data set [2] (1 day (control 29)), in data set [2] (8 days (control 100)), in [2] (134 days (control 100)) and in data set [2] (149 days (control 100)) was 100% each time.

On to `C=CCc1ccc(O)c(OC)c1` [Eugenol, eugenol], for which the figures for the “Time (weeks), period of storage without any fungal contamination, in vivo” value in data set [4] (0.5 μL/mL), in [4] (2.5 μL/mL) and in data set [4] (5.0 μL/mL) were 2 weeks, 25 weeks and 25 weeks, respectively. The “Insect Mortality (%)” value in [2] (0.25 days) amounted to 0%; in [2] (1 day (control 29)), 70%; in data set [2] (8 days (control 100)), 100%; in data set [2] (134 days (control 100)) it was 100%; in [2] (149 days (control 100)), 100%. Moreover, the “Time (weeks), period of storage without any fungal contamination” value in [7] (0.5 μL/mL), in [7] (1.0 μL/mL), in [7] (2.5 μL/mL), in data set [7] (5.0 μL/mL), in data set [8] (0.5 μL/mL) and in [8] (1.0 μL/mL) was 25 weeks in each case. In addition, the “Time (weeks), period of storage without any fungal contamination” value in data set [8] (2.5 μL/mL), in [8] (5.0 μL/mL), in data set [9] (0.5 μL/mL), in [9] (1.0 μL/mL), in data set [9] (2.5 μL/mL) and in data set [9] (5.0 μL/mL) was 25 weeks in each case. For the same compound, the “Time (weeks), period of storage without any fungal contamination” value in data set [10] (0.5 μL/mL), in [10] (1.0 μL/mL), in data set [10] (2.5 μL/mL), in data set [10] (5.0 μL/mL), in data set [11] (0.5 μL/mL) and in data set [11] (1.0 μL/mL) was 25 weeks in each case. For the same compound, the “Time (weeks), period of storage without any fungal contamination” value in data set [11] (2.5 μL/mL) was determined as 25 weeks; in data set [11] (5.0 μL/mL), 25 weeks; in [12] (0.5 μL/mL), 21 weeks; in [12] (1.0 μL/mL), 25 weeks; in [12] (2.5 μL/mL), 25 weeks; in data set [12] (5.0 μL/mL), 25 weeks. The “Time (weeks), period of storage without any fungal contamination” value in data set [13] (0.5 μL/mL) came out at 23 weeks; in data set [13] (1.0 μL/mL), 25 weeks; in data set [13] (2.5 μL/mL), 25 weeks; in data set [13] (5.0 μL/mL) it was 25 weeks; in data set [14] (0.5 μL/mL) it was 25 weeks; in data set [14] (1.0 μL/mL) it was 25 weeks. Also, the “Time (weeks), period of storage without any fungal contamination” value in data set [14] (2.5 μL/mL) and in data set [14] (5.0 μL/mL) was 25 weeks each time.
